The values that follow come from US20200054581A1, “APPLICATION OF TRPM7 INHIBITORS TO TREAT SLEEP APNEA AND HYPERTENSION IN OBESITY” (THE JOHNS HOPKINS UNIVERSITY, priority 2017, published 2020).

The test system of data set [1] is C57BL/6J mice. The data set can be described thus: telemetric blood pressure in mice, leptin-induced hypertension. The format is in vivo, mouse. Here is the method: Leptin signals in the CB to increase blood pressure. Male C57BL/6J mice, n=6 housed in a 12 hr light/dark cycle underwent telemetry implantation (Data Sciences) in the left femoral artery as we have described. […] After 4 day recovery mice were treated with vehicle (saline) regaining weight. On Day 17th of the protocol, carotid sinus nerve dissection (CSND, CB denervation) was performed bilaterally. After 1 week recovery, leptin and vehicle infusions were repeated. […] In contrast, CB denervation greatly modified cardiovascular effects of leptin. Indeed, in mice with intact carotid bodies leptin increased mean arterial pressure by 13 mm Hg during the day and by 16 mm Hg at night (FIG. 16A). […] Thus, leptin increases blood pressure acting in the CB.
FTY720 abolishes leptin-induced hypertension. There are multiple TRPM7 inhibitors available. We used a potent TRPM7 inhibitor FTY720 for several reasons. FTY720 is a novel immunomodulator and a structural homolog of shingosine-1-phosphate (S1P) blocking S1P effects in many diseases, including atherosclerosis, cancer, asthma, autoimmune diseases and acute lung injury. First, FTY270 has already been approved by FDA for multiple sclerosis (fingolimod). […] The experiment was performed in lean (24-26 g) C57BL/6J mice (n=5). Telemetry for continuous blood pressure recording was inserted. After 5 day recovery, mice were treated with leptin for 3 days as above. The pump was removed. After 7 day recovery, leptin was reinfused as above, but FTY720 was infused SC simultaneously at 0.1 mg/day (approximately 3 mg/kg/day).
Obesity leads to cardiovascular morbidity and mortality acting via multiple mechanisms including hypertension and obstructive sleep apnea. High levels of leptin have been associated with both conditions. The carotid bodies (CB) express leptin receptor (LepR), but the mechanism of leptin in CB is unknown. […] (CSND). In mice with intact CB, leptin increased mean arterial pressure by 13 mm Hg during the day and by 16 mm Hg at night (p=0.003 for the effect of leptin). […] Leptin receptor expression in carotid bodies of leptin receptor deficient db/db mice led to the same effect (n=6, p<0.05). […] Finally, the inventors tested the effect of a Trpm7 inhibitor on leptin-induced hypertension. The inventors performed blood pressure monitoring in male C57BL/6J mice (n=5˜9) at baseline, during leptin infusion with or without Trpm7 inhibitor, FTY720 (3 mg/kg/day, sc, n=5) for 24 hrs. […] The inventors conclude that leptin increases blood pressure acting in the CB via the Trpm7 channel.

Data set [2] is described as follows: serum leptin levels during leptin administration. Format: in vivo, mouse. The note with it: leptin 30 μg/day for 3 days, subcutaneous osmotic pump. Here is the method: Leptin increases the HVR in lean mice. Minute ventilation (VE) was measured at normoxic conditions and during 3-5 min exposure to 10% O2 in awake lean male C57BL/6J mice, n=4, at baseline and during leptin administration (30 μg/day for 3 days via a subcutaneous osmotic pump). Serum leptin levels increased from 0.8±0.2 ng/ml to 33.2±1.9 ng/ml, which was similar to previously reported in DIO mice and obese humans, and then returned to the baseline. Mice decreased food intake and lost weight. Leptin increased VE at baseline as a result of an increase in the metabolic rate (FIG. 10). Leptin increased the HVR by greater than 60%.

In data set [3] the target is T1, TRPM7 (Rattus norvegicus, UniProt Q925B3).
T1 construct: PC12 cells are oxygen-sensitive, express high level of TRPM7; endogenous in cells; host or cells: PC12^LEPRb cells (PC12 transfected with leptin receptor LEPRb; TRPM7 itself not transfected)
T1 sequence (Q925B3 whole entry): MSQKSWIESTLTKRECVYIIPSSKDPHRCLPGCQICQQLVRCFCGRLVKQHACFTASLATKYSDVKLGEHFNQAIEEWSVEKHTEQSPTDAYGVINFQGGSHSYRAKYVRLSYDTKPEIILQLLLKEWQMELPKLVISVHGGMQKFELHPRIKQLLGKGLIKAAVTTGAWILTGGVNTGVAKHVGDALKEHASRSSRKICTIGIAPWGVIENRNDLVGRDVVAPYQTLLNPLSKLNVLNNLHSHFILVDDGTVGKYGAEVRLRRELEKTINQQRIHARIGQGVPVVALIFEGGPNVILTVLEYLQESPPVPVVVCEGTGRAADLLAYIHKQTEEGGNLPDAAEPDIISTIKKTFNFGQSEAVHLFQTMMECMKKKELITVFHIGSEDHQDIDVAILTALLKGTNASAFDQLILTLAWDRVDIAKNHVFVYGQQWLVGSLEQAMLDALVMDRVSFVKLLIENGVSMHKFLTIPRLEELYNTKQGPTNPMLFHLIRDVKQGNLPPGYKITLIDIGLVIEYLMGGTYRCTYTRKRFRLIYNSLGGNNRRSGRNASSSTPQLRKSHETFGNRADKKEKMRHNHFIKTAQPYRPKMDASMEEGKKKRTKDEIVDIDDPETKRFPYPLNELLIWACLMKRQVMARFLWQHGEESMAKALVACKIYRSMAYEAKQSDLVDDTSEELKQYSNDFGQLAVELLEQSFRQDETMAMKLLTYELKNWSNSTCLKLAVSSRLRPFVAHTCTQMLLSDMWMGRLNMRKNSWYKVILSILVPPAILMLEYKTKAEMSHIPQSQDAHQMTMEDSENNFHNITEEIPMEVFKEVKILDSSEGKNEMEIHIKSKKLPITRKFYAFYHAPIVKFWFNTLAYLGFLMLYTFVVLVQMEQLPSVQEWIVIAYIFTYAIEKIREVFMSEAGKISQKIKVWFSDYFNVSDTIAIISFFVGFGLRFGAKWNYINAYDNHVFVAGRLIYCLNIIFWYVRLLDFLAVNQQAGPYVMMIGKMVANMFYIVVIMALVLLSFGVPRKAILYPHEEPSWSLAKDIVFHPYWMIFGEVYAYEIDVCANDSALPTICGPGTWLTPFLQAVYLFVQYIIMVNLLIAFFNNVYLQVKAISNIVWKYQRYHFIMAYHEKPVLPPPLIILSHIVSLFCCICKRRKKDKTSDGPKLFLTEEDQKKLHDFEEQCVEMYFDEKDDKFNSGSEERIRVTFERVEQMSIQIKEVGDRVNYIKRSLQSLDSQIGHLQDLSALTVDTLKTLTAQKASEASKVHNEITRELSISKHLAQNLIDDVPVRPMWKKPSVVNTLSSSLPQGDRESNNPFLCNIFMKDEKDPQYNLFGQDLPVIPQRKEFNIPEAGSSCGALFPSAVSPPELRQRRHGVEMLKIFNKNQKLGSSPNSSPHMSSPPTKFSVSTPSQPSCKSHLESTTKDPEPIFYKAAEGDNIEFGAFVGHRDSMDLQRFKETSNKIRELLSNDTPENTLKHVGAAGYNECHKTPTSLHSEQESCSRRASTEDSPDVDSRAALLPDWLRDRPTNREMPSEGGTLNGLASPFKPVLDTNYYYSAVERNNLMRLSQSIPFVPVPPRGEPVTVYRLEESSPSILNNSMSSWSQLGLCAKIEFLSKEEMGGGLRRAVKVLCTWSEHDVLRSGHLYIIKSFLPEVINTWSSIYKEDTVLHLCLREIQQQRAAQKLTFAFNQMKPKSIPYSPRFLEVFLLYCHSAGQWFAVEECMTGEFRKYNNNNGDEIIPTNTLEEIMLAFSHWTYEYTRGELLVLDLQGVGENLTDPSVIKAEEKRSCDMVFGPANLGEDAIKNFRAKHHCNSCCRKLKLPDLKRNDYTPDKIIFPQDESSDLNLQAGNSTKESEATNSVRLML
The data set can be described thus: non-selective cation (TRPM7) current, amphotericin-B perforated-patch recording in PC12^LEPRb cells. The format is cell-based. The note with it: effect of leptin (10-100 ng/ml elsewhere in the source). The text has this:
FIG. 5A-5C illustrates leptin enhances TRPM7 current in leptin receptor expressing PC12 cells.
Leptin can regulate TRPM7 channel activity. Leptin exerts its action by binding to the long form of leptin receptors (LEPRb, ObRb), which is the only functional isoform of leptin receptor. The possible effect of leptin on TRPM7 channel activity was investigated, by using LEPRb expressing adrenal pheochromocytoma PC12 (PC12^LEPRb) cells as the cell model, because PC12 cells are oxygen-sensitive, express high level of TRPM7 and have been used widely in the studies of chemoreception. Non-selective cation current was recorded using amphotericin-B perforated-patch technique in the absence of extracellular and intracellular K^+ (replaced by Cs^+) and Mg^2+, after VDCC was blocked by nifedipine and Cl^− currents were inhibited by DIDS and niflumic acid. Voltage-ramp of −100 to +100 mV elicited an outward rectifying current that resembled TRPM7 current reported in other cell types. […] The leptin-induced current was not observed in PC12 cells transfected with a control plasmid (data not shown). The present invention provides the first evidence showing activation of leptin receptor is capable of enhancing TRPM7 activity, and it supports our hypothesis that leptin may enhance CB activity through regulation of TRPM7 activity.
Obesity is a leading cause of high cardiovascular morbidity and mortality. It is characterized by an increased leptin level, which has been implicated in increased sympathetic activity and the pathogenesis of hypertension. However, the mechanism by which leptin enhances sympathetic activity is unclear. Leptin receptors (LEPRs) are expressed in the carotid bodies, the most important arterial chemoreceptors for the cardiovascular-respiratory chemoreflex. Since leptin is known to regulate many different ion channels, we hypothesize that leptin may exert its effects through modulation of TRPM7 channel activity. To test this hypothesis, the inventors used LEPR (LEPRb) expressing pheochromocytoma (PC12^LEPRb) cells, which expresses high levels of TRPM7 channels, as the cell model. Non-selective cation channels were recorded under amphotericin-B perforated-patch techniques with K^+ replaced by Cs^+ in the presence of voltage-gated Ca^2+ channel and Cl^− channel blockers. Voltage-ramp from −100 to 100 mV activated an outward-rectifying current. Removal of extracellular divalent ions enhanced the inward current, consistent with the inward divalent ion selectivity of TRPM7.

The mark [4] stands for this setting: leptin infusion for 3 days, intact carotid bodies.

“Also recorded” adds a separate entry of the source.

Regarding leptin: an adipocyte-produced hormone, in data set [1] (leptin), the heart rate entry was “increases” and the “mean arterial pressure, in words” value is recorded as “increases”. In addition, in data set [1] (setting [4]), the “increase of mean arterial pressure at night” value is listed as 16 mm Hg and the “increase of mean arterial pressure during the day” value stood at 13 mm Hg. In addition, the serum leptin levels in data set [2] worked out at 33.2 ± 1.9 ng/mL. Besides, the “outward rectifying non-selective cation (TRPM7) current” value in data set [3] is reported as “enhances; also recorded: concentration-dependent increase”.
